According to article PMC6251811 (Acta Pharmaceutica Sinica. B, 2018):

Experiments:
[1] = test system: type-I interferon signaling pathway; experiment: SEAP reporter gene assay in HEK-Blue IFNα/β cells stimulated with IFN-α2a; assay type: cell-based; details: Homo sapiens
Phospho-STAT1 (Tyr701) [2] = experiment: Western blot of STAT1 phosphorylation in HEK-Blue IFNα/β cells after IFN-α2a; assay type: cell-based, human; details: niclosamide 10 μmol/L (Fig. 5B, Fig. S2)
Phospho-STAT1 (Tyr701) [3] = experiment: Western blot of STAT1 phosphorylation in SH-SY5Y cells after IFN-α2a; assay type: cell-based, human; details: niclosamide 10 μmol/L (Fig. 6B)
IRF7 mRNA = IRF7 mRNA quantitative PCR in SH-SY5Y cells; assay type: cell-based, human; details: positive control niclosamide, IFN-α2a 1 h
STAT3 phosphorylation = details: concentrations below 10 μmol/L; cited from earlier work

IC50 [1]: 370 nM
Compound: O=C(Nc1ccc([N+](=O)[O-])cc1Cl)c1cc(Cl)ccc1O [niclosamide, Niclosamide]
effect on STAT1 phosphorylation (Phospho-STAT1 (Tyr701) [2]): also inhibited STAT1 phosphorylation
effect on STAT1 phosphorylation (Phospho-STAT1 (Tyr701) [3]): also inhibited STAT1 phosphorylation
IRF7 level after compound plus IFN-α2a (IRF7 mRNA): 0.84±0.07 folds
effect on STAT phosphorylation (STAT3 phosphorylation): only inhibit STAT3 phosphorylation
